This is an account of results in PubChem BioAssay AID493043 (Johns Hopkins Ion Channel Center, 2011).

In this test the target is Potassium voltage-gated channel subfamily KQT member 4 (Homo sapiens) (UniProt P56696). Briefly: activation of KCNQ4 potassium current – automated patch clamp, CHO cells, selectivity assay for KCNQ2 activator project, dose response (AID 493043). Particulars: automated patch clamp current potentiation. (In general: The patch-clamp technique gives a direct electrical read-out from membranes.)
Potassium voltage-gated channel subfamily KQT member 4 (Homo sapiens), sequence (P56696 whole entry, looked up): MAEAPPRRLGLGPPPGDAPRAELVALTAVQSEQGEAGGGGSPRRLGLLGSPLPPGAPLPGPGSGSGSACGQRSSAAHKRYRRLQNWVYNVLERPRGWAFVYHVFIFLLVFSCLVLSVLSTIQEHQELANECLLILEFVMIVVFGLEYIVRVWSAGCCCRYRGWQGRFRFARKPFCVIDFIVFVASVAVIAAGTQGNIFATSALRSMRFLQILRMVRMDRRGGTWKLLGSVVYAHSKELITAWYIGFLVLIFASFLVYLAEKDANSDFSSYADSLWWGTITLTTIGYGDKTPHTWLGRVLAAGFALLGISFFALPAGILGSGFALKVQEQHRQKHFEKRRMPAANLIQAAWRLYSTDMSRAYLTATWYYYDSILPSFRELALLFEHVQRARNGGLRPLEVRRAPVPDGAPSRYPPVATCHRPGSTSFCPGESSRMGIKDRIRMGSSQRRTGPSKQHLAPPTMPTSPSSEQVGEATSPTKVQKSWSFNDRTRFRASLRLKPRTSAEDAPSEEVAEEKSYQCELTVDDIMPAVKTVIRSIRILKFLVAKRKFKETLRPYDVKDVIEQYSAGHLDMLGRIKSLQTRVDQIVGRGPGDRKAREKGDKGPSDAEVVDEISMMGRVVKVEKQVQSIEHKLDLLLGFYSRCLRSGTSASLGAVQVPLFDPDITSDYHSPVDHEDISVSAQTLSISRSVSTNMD

SMILES strings stand for the structures.

For the compound `Cc1cc(C)c(NC(=O)C2CC3CCC2C3)c(C)c1` (stereo unspecified), the EC50 is 513 nM.

As a reminder, the EC50 is the concentration that produces a half-maximal response.
